# Experimental data taken from patent US11129820B2, “Ferroportin-inhibitor salts” (Vifor (International) AG, priority 2017, dated 2021).
# Marks after values point to notes of the source that are not given here.
# What was measured:
# anemic Wistar rats = experiment: Prevention of iron absorption in anemic rats; type: in vivo, rat; conditions: n=5
# Protocol: To assess the in vivo efficacy of ferroportin (Fpn) inhibitors to block iron absorption, a series of Fpn inhibitors is tested in an anemic rat model for iron absorption. Wistar rats (3-4 weeks old, n=5, Janvier Labs) are fed a low iron diet (Provimi-Kliba, Cat. 2039) until their hemoglobin (Hb) values reach 7-8 g/dl one day before dosing of the Fpn inhibitor compounds. One hour before oral application of 0.5 mg/kg of ferrous sulfate, test compounds formulated in methyl cellulose or Cremophor are dosed orally. Blood samples are taken by tail vein puncture one hour before administration of iron (−1 h), immediately after dosing of the Fpn inhibitors (0 h) and one hour (1 h), three hours (3 h) and occasionally up to 6 hours (6 h) after dosing of the test compounds. Serum iron levels are measured (Abbott Diagnostics, Cat. 6K95) and inhibition of the rise of serum iron three hours after dosing of the test compound is calculated as a measure for efficacy of the Fpn inhibitors in blocking iron absorption (Table 7).
# [1] = test system: beta2-microglobulin deficient (b2m−/−) mice; experiment: Prevention of iron overload in beta2-microglobulin deficient mice; type: in vivo, mouse; conditions: 14 days
# Protocol: In addition, feeding 3 week old b2m−/− mice a diet with low iron content (LID) immediately after weaning prevents liver iron loading by age of 6-7 weeks. The efficacy of the Fpn inhibitors to prevent liver iron accumulation in b2m−/− mice is investigated. Three weeks old b2−/− mice fed LID are dosed with either Fpn inhibitor or vehicle (methylcellulose; 10 ml/kg). Mice have access to drinking water supplemented with 1 mM ^58Fe(II)-sulfate and 10 mM ascorbic acid. Dosing of Fpn inhibitor or vehicle followed by exposure to iron-containing water is repeated for 14 days. Mice are euthanized and the liver and spleen iron contents are analyzed by ICP-OES (all iron isotopes) and liver tissue is also analyzed for ^58Fe concentration (ICP-MS).
# Livers and spleens are collected after 14 day treatment (p.o.; b.i.d) of beta2-microglobulin deficient mice with the indicated doses of Fpn inhibitors. Total liver and spleen tissue iron concentrations are measured using ICP-OES and ^58Fe liver concentrations are determined with ICP-MS. Relative changes (%) of tissue iron levels are calculated by normalizing the difference between the averages of tissue iron values of animals dosed with the Fpn inhibitors and those of vehicle-treated animals with the average of vehicle controls.
# Hbb th3/+ mice = experiment: Mouse model of β-thalassemia intermedia (Hbb th3/+ mice); type: in vivo; conditions: for Decrease in RDW by 20/60 mg/kg compound / Decrease in ^58Fe spleen iron content by 20/60 mg/kg compound / Decrease in blood reticulocyte counts by 20/60 mg/kg compound / Decrease in leukocyte counts by 20/60 mg/kg compound / Decrease in serum erythropoietin by 20/60 mg/kg compound / Increase in blood erythrocyte counts by 20/60 mg/kg compound / Increase in hematocrit by 20/60 mg/kg compound / Prevention of liver ^58Fe loading by 20/60 mg/kg / Decrease in serum iron by 20/60 mg/kg compound / Decreased in ROS in bone marrow erythrocytes / Decrease in relative spleen weight by 20/60 mg/kg: % change to vehicle; for Correction of anemia at day 20-48 by 20/60 mg/kg: hemoglobin difference to vehicle; for Decrease in serum iron by 20/60 mg/kg compound: dosed for 3 h
# Protocol: The efficacy of Fpn inhibitors is investigated using a mouse model of transfusion-independent β-thalassemia. Mice with heterozygous deletion of β 1 and β 2 globin genes (called Hbb th3/+ mice) develop transfusion-independent anemia, ineffective erythropoiesis, splenomegaly and secondary iron overload in spleen, liver and kidneys. […] Hbb th3/+ mice are dosed twice daily with either compound at 20 or 60 mg/kg or with methylcellulose (10 ml/kg, Sigma, Cat. 274429) as a vehicle. Between both doses mice have access to drinking water supplemented with 1 mM ^58Fe(II)-sulfate (Vifor Pharma, Batch No. ROR 3096) and 10 mM ascorbic acid (Sigma, Cat. 795437) for 6 h. The concentration of ^58Fe(II)-Sulfate supplied in the drinking water is adjusted to substitute for intake of standard rodent diet with iron content of 250 ppm. Water without ^58Fe(II)-Sulfate and ascorbic acid is provided during the remaining 18 h. Dosing of Fpn inhibitors or vehicle followed by exposure to iron-containing water is repeated for 20 to 46 days in individual experiments.
# Additional hematologic parameters are measured in terminal blood using automated blood cell analyzer.
# The inefficient erythropoiesis of Hbb th3/+ mice causes excessive proliferation of erythroid precursors in spleen, leading to splenomegaly.
# Elevated erythropoietin levels in Hbb th3/+ mice induce overexpression of erythroferrone, an erythroid regulator hormone known to suppress hepcidin (Kautz L. et al, Nat. Genet., 2014). […] Erythroferrone is produced by erythrocyte precursors proliferating massively in spleens of Hbb th3/+ mice as a consequence of extramedullar erythropoiesis.
# Increased iron demand due to inefficient erythropoiesis and chronically low hepcidin levels in patients with thalassemia causes organ iron loading and associated morbidities, such as hepatocellular carcinoma and heart failure (Rivella S. Haematologica, 2015). Hbb th3/+ mice absorb excessive amounts of iron as a consequence of inadequately low hepcidin levels relative to the high iron content in liver, spleen and kidney and increased ferroportin expression in duodenum (Gardenghi S., Blood, 2007).
# Additionally, reactive oxygen species (ROS) are detected in bone marrow cells using a fluorescent indicator, CM-H2DCFDA (Thermo Fisher Scientific, Cat. C6827).
# Data are expressed as difference to the vehicle control group for hemoglobin and as % change to the vehicle control group for all other parameter shown
# [2] = 20 mg/kg twice daily for 20-46 days
# [3] = 60 mg/kg twice daily for 20-46 days
# [4] = first value of the pair (20 mg/kg; dose not printed in this line)
# [5] = second value of the pair (60 mg/kg; dose not printed in this line)
Compound,Serum Iron Inhibition (%) at 3 h (anemic Wistar rats; Dose 10 mg/kg oral),Serum Iron Inhibition (%) at 3 h (anemic Wistar rats; Dose 30 mg/kg oral),"Total Liver Iron Reduction (%) ([1]; female ♀, 20 mg/kg p.o. b.i.d.)","Total Spleen Iron Increase (%) ([1]; female ♀, 20 mg/kg p.o. b.i.d.)","^58Fe Liver Iron Reduction (%) ([1]; female ♀, 20 mg/kg p.o. b.i.d.)","Total Liver Iron Reduction (%) ([1]; male ♂, 20 mg/kg p.o. b.i.d.)","^58Fe Liver Iron Reduction (%) ([1]; male ♂, 20 mg/kg p.o. b.i.d.)",Decrease in ^58Fe spleen iron content by 20/60 mg/kg compound (Hbb th3/+ mice; [2]) [%],Decrease in blood reticulocyte counts by 20/60 mg/kg compound (Hbb th3/+ mice; [2]) [%],Decrease in leukocyte counts by 20/60 mg/kg compound (Hbb th3/+ mice; [2]) [%],Increase in blood erythrocyte counts by 20/60 mg/kg compound (Hbb th3/+ mice; [2]) [%],Increase in hematocrit by 20/60 mg/kg compound (Hbb th3/+ mice; [2]) [%],Prevention of liver ^58Fe loading by 20/60 mg/kg (Hbb th3/+ mice; [2]) [%],Correction of anemia at day 20-48 by 20/60 mg/kg (Hbb th3/+ mice; 20 mg/kg twice daily) [g/L],Decrease in serum iron by 20/60 mg/kg compound (Hbb th3/+ mice; 20 mg/kg) [%],Decrease in ^58Fe spleen iron content by 20/60 mg/kg compound (Hbb th3/+ mice; [3]) [%],Decrease in blood reticulocyte counts by 20/60 mg/kg compound (Hbb th3/+ mice; [3]) [%],Increase in blood erythrocyte counts by 20/60 mg/kg compound (Hbb th3/+ mice; [3]) [%],Increase in hematocrit by 20/60 mg/kg compound (Hbb th3/+ mice; [3]) [%],Prevention of liver ^58Fe loading by 20/60 mg/kg (Hbb th3/+ mice; [3]) [%],also measured
O=C(NCc1ncccc1F)c1cnc(CCNCCc2nc3ccccc3[nH]2)o1 [Example Compound No. 1],42.6** %,64.9*** %,−1,21%,4%,16,−8%,14,8,32,4,0,12,6,49,48,39,8,4,40,"Serum Iron Inhibition (%) at 3 h (anemic Wistar rats; Dose 3 mg/kg oral): 2.1%; Total Liver Iron Reduction (%) ([1]; female ♀, 60 mg/kg p.o. b.i.d.): 15%; Total Spleen Iron Increase (%) ([1]; female ♀, 60 mg/kg p.o. b.i.d.): 65%; ^58Fe Liver Iron Reduction (%) ([1]; female ♀, 60 mg/kg p.o. b.i.d.): 59%; Total Spleen Iron Increase (%) ([1]; male ♂, 20 mg/kg p.o. b.i.d.): 28%; Total Liver Iron Reduction (%) ([1]; male ♂, 60 mg/kg p.o. b.i.d.): 25%; Total Spleen Iron Increase (%) ([1]; male ♂, 60 mg/kg p.o. b.i.d.): 49%; ^58Fe Liver Iron Reduction (%) ([1]; male ♂, 60 mg/kg p.o. b.i.d.): 22%; Decrease in RDW by 20/60 mg/kg compound (Hbb th3/+ mice; [2]): 3%; Decrease in serum erythropoietin by 20/60 mg/kg compound (Hbb th3/+ mice; [2]): 64%; Decrease in RDW by 20/60 mg/kg compound (Hbb th3/+ mice; [3]): 16%; Decrease in leukocyte counts by 20/60 mg/kg compound (Hbb th3/+ mice; [3]): 44%; Decrease in serum erythropoietin by 20/60 mg/kg compound (Hbb th3/+ mice; [3]): 78%; Correction of anemia at day 20-48 by 20/60 mg/kg (Hbb th3/+ mice; 60 mg/kg twice daily): 20 g/L; Decrease in serum iron by 20/60 mg/kg compound (Hbb th3/+ mice; 60 mg/kg): 66%; Decreased in ROS in bone marrow erythrocytes (Hbb th3/+ mice; [4]): 20%; Decreased in ROS in bone marrow erythrocytes (Hbb th3/+ mice; [5]): 45%"
O=C(NCc1ncccc1F)c1cnc(C2CN(CCc3nc4ccccc4[nH]3)C2)o1 [Example Compound No. 2],29** %,57*** %,26,13%,60** %,10,24%,13,0,29,0,0,14,3,50,40,11,33,15,47,"Serum Iron Inhibition (%) at 3 h (anemic Wistar rats; Dose 3 mg/kg oral): −3%; Total Liver Iron Reduction (%) ([1]; female ♀, 60 mg/kg p.o. b.i.d.): 45%; Total Spleen Iron Increase (%) ([1]; female ♀, 60 mg/kg p.o. b.i.d.): 1%; ^58Fe Liver Iron Reduction (%) ([1]; female ♀, 60 mg/kg p.o. b.i.d.): 77*** %; Total Spleen Iron Increase (%) ([1]; male ♂, 20 mg/kg p.o. b.i.d.): 18%; Total Liver Iron Reduction (%) ([1]; male ♂, 60 mg/kg p.o. b.i.d.): 28%; Total Spleen Iron Increase (%) ([1]; male ♂, 60 mg/kg p.o. b.i.d.): −20%; ^58Fe Liver Iron Reduction (%) ([1]; male ♂, 60 mg/kg p.o. b.i.d.): 70%; Decrease in RDW by 20/60 mg/kg compound (Hbb th3/+ mice; [2]): 0%; Decrease in relative spleen weight by 20/60 mg/kg (Hbb th3/+ mice; [2]): 16%; Decrease in serum erythropoietin by 20/60 mg/kg compound (Hbb th3/+ mice; [2]): 4%; Decrease in RDW by 20/60 mg/kg compound (Hbb th3/+ mice; [3]): 15%; Decrease in leukocyte counts by 20/60 mg/kg compound (Hbb th3/+ mice; [3]): 55%; Decrease in relative spleen weight by 20/60 mg/kg (Hbb th3/+ mice; [3]): 47%; Decrease in serum erythropoietin by 20/60 mg/kg compound (Hbb th3/+ mice; [3]): 27%; Correction of anemia at day 20-48 by 20/60 mg/kg (Hbb th3/+ mice; 60 mg/kg twice daily): 11 g/L; Decrease in serum iron by 20/60 mg/kg compound (Hbb th3/+ mice; 60 mg/kg): 69%; Decreased in ROS in bone marrow erythrocytes (Hbb th3/+ mice; [4]): 13%; Decreased in ROS in bone marrow erythrocytes (Hbb th3/+ mice; [5]): 65%"
O=C(NCc1ncccc1F)c1csc(CCNCc2nc3ccccc3[nH]2)n1 [Example Compound No. 40],32** %,53*** %,32,50* %,44%,31,53* %,19,19,0,2,0,20,6,28,51,43,22,1,48,Serum Iron Inhibition (%) at 3 h (anemic Wistar rats; Dose 100 mg/kg oral): 97*** %; Correction of anemia at day 20-48 by 20/60 mg/kg (Hbb th3/+ mice; 60 mg/kg twice daily): 13 g/L; Decrease in serum iron by 20/60 mg/kg compound (Hbb th3/+ mice; 60 mg/kg): 58%
